Assay results as given in patent publication US10233161B2, “Pharmaceutical compositions and salts of a 1,2,4-oxadiazole benzoic acid” (PTC Therapeutics, Inc., priority 2014, dated 2019).

Legend:
[1] = tested on: nonsense mutation in the mouse PAX6 gene; experiment: Nonsense mutation mouse model of aniridia (PAX6^Sey+/−); format: in vivo
Experimental: Compound 1 was administered subcutaneously to PAX6 mutant and wild-type mice for 10 days (Postnatal Day 4-14) or administered topically as an ophthalmic suspension formulation (0.9% sodium chloride, 1% Tween 80, 1% powdered Compound 1, 1% carboxymethylcellulose), twice per day for 46 days (Postnatal Day 14-60). […] In the untreated mutant mouse group, progressive in-folding of the retina and abnormally small lenses was observed.
(§1) Additional successful results were achieved after topical administration of Compound 1 directly into the eye as an ophthalmic suspension formulation (0.9% sodium chloride, 1% Tween 80, 1% powdered Compound 1, 1% carboxymethylcellulose). The lens and retinal defects, observed in the untreated eyes, reversed in the Compound 1-treated mutant mice and closely resembled wild-type mice (FIG. 36B). […] Treatment with Compound 1 caused an increase in the PAX6 protein by 90% in the corneal and retinal epithelium protein lysates compared to wild-type mice (FIG. 36C) as measured by enzyme-linked immunosorbent assay (ELISA).
As a test for effects on visual acuity in the mice, the optokinetic tracking response was measured, which is a behavioural response mediated through the retina-brain circuitry.

[2] = tested on: splice-site mutation in PAX6 (PAX6^Sey-1Neu); experiment: Mouse model containing a splice-site mutation in PAX6 (PAX6^Sey-1Neu); format: in vivo
Text: as §1

[3] = Comparative equilibrium solubility study of micronized and non-micronized Compound 1; format: physicochemical
Experimental: Objective: The purpose of this study was to evaluate the solubility of micronized and non-micronized Compound 1. The solubility study was conducted in two representative media in pH 1 (0.1 N HCl with 0.5% sodium lauryl sulfate) and in pH 7.4 (0.1M phosphate buffered saline). The experiment further compared the initial rate of dissolution and equilibrium solubilities of micronized and non-micronized Compound 1 over a period of time.
Solubility measurement procedure comprised the steps of: 1) weighing and mixing approximately 100 mg of micronized Compound 1 and 100 mL of 0.1N HCl with 0.5% SLS into amber jar 1; 2) weighing and mixing approximately 100 mg of micronized Compound 1 and 100 mL of PBS into amber jar 2; 3) weighing and mixing approximately 100 mg of non-micronized Compound 1 and 100 mL of 0.1N HCl with 0.5% SLS into amber jar 3; 4) weighing and mixing approximately 100 mg of non-micronized Compound 1 and 100 mL of PBS into amber jar 4; 5) mixing all samples in their respective amber jars using a multi purpose rotator for 2 hours; 4) sampling at 5 minutes, 10 minutes, 30 minutes, 60 minutes, 90 minutes, 120 minutes; 5) filtering the samples and 6) analyzing the filtrates using HPLC. For each time point, 10 mL of sample was drawn using a 10 mL syringe with a needle attached filter and using a syringe-top 0.45 μm PTFE syringe filter. The first 9 mL of the samples collected were put back into the original amber jar and then remaining 1 mL was transferred to HPLC vial for analysis.

[4] = Dynamic Vapor Sorption (DVS) / hygroscopicity; format: physicochemical; conditions: for DVS behaviour (figure legend): FIG. 17-21; for DVS result: Table 4; for Hygroscopicity (class): classified according to the European Pharmacopoeia; for DVS water uptake: from 80% to 95% r.h. (equilibrium reached); for Hygroscopicity (mass change): mass change in the range 0→85% r.h.; for DVS mass remaining higher than the original mass: upon lowering the relative humidity again (to 50% r.h.)
Experimental: DVS measurements (50%→0%→95%→50% r.h.) were performed on the samples of potassium salt 1, sodium salt 1, tromethamine salt 1, L-lysine salt and magnesium salt 2.

[5] = Aqueous solubility determination of salts; format: physicochemical; conditions: for pH (aqueous solubility): pH at aqueous solubility; for pH / Solubility: Table 10; for pH: pH of the filtrate; for Solubility: 500 rpm, free acid by HPLC
Experimental: Each salt was suspended in water and shaken for 24 h at 25° C. and 500 rpm. The resulting suspensions were filtered (0.1 μm filter). The obtained solid residues were analyzed by FT-Raman. The pH of the filtrate was measured, and the concentration of the free acid was determined by HPLC.

[6] = Crystallinity estimated from PXRD; format: physicochemical; set-up: key: +++ = high; ++ = good; + low
[7] = subcutaneous, 10 days (Postnatal Day 4-14), PAX6 mutant mice
[8] = topical 1% ophthalmic suspension

Compound | DVS behaviour (figure legend) [4] | DVS result [4] | Hygroscopicity (class) [4] | DVS water uptake [4] | Hygroscopicity (mass change) [4] | DVS mass remaining higher than the original mass [4] [wt. %] | Aqueous solubility ([5]; Table 2, water, 24 h, 25° C.) [mg/mL] | Aqueous solubility ([5]; Table 4) [mg/mL] | pH (aqueous solubility) ([5]; Table 4) | pH [5] | Solubility ([5]; water, 24 h, 25° C.) [mg/mL] | Crystallinity [6] | other results
O=C(O)c1cccc(-c2noc(-c3ccccc3F)n2)c1 [Compound 1, 3-[5-(2-fluoro-phenyl)-[1,2,4]oxadiazol-3-yl]-benzoic acid] |  |  |  |  |  |  |  |  |  |  |  |  | Optokinetic tracking response (visual acuity) ([1]; spatial frequency threshold, treated mutant mice): significant improvement in the spatial frequency threshold; Increase of the size of the lens [1, 7]: 70%; Retinal in-folding [1, 7]: corrected the retinal in-folding; Disease progression and malformation ([1]; summary for the aniridia model): inhibited disease progression and reversed malformation in the cornea, lens and retina; Histological examination of the cornea [1, 8]: decreased corneal thickening; Retina response to light stimulation [1, 8]: increased response to light stimulation; Lens and retinal defects ([1]; topical 1% ophthalmic suspension, twice per day, Postnatal Day 14-60): reversed; Increase in the PAX6 protein ([1]; topical 1% ophthalmic suspension, corneal and retinal epithelium protein lysates, ELISA): 90%; Response to therapy [2]: did not show a response; Time at which solubility equilibrium was reached ([3]; pH 1 media): approximately 30 minutes; Time at which equilibrium solubility was reached ([3]; pH 7.4 media): approximately 2 hours
O=C([O-])c1cccc(-c2noc(-c3ccccc3F)n2)c1.[K+] [Potassium salt 1] | small irreversible water uptake | H not detected; DVS: hygroscopic sample, hydrate formation; (increase of the mass is less than 15% and equal or greater than 2%) | (hygroscopic) (increase of the mass is less than 15% and equal or greater than 2%) | roughly 3 wt. % | +7.81 wt % | ~1 | 57 | 57.00 | 9.2 | 9.2 | 57 | + | DVS mass loss ([4]; humidity decreased to 0% r.h. (equilibrium not reached)): ~6 wt. %; DVS water uptake (mass change) ([4]; humidity further increased to 80% r.h.): ~1.5 wt. %
O=C([O-])c1cccc(-c2noc(-c3ccccc3F)n2)c1.[Na+] [Sodium salt 1] | stepwise irreversible water uptake | acidic H not detected; DVS: hygroscopic sample, hydrate (increase of the mass is less than 15% and equal or greater than 2%) | (very hygroscopic) (increase of the mass ≥15%) |  | +19.52 wt % | ~16 | 22 | 22.22 | 8.3 | 8.3 | 22 | ++ | DVS reversible mass change ([4]; 50% to 0% r.h. and again to 50% r.h.): 2 wt. %; DVS water uptake in one step ([4]; from 50% to 62% r.h.): Approximately 10 wt. %; DVS further water uptake, second step ([4]; humidity increased to 80% r.h. (equilibrium not reached)): ~6 wt. %; DVS water uptake up to 95% r.h. ([4]; humidity increased to 95% r.h.): 20 wt. %
NC(CO)(CO)CO.O=C(O)c1cccc(-c2noc(-c3ccccc3F)n2)c1 [Tromethamine salt 1] | large reversible water uptake with hysteresis | hygroscopic sample; Aqueous solubility (increase of the mass is less than 15% and equal or greater than 2%) | (hygroscopic) (increase of the mass is less than 15% and equal or greater than 2%) | ~25 wt. % | +3.59 wt % |  | 18 |  |  | 8.1 | 18 | +++ | DVS weight loss to a value lower than the original mass ([4]; below 70% r.h. on the way down): 3 wt. %; DVS mass change ([4]; humidity decreased to 0% r.h. and then raised to 80% r.h.): no significant mass change; DVS overall weight loss ([4]; whole DVS cycle): 3%
